Experimental data taken from US20110166221A1, “USE OF DRONEDARONE FOR THE PREPARATION OF A MEDICAMENT FOR USE IN THE PREVENTION OF CARDIOVERSION” (SANOFI-AVENTIS, priority 2008, published 2011).
Structures can show the parent of a compound that is named as a salt.

System: patients with a history of atrial fibrillation or atrial flutter
Experiment: prospective, multinational, double-blind, randomized, multi-center, placebo-controlled, parallel group trial for the prevention of cardioversion
Type: in vivo, human
Description: Efficacy of dronedarone and its pharmaceutically acceptable salts versus placebo for the prevention of cardioversion was provided via dronedarone hydrochloride during a prospective, multinational, double-blind, randomized, multi-center, placebo-controlled, parallel group trial.
Patients must have a history of atrial fibrillation or atrial flutter and/or may be in normal sinus rhythm or in atrial fibrillation or flutter at the time of recruitment.
Recruitment of patients was conducted taking into account the following inclusion criteria:
• 1) One of the following risk factors had to be present: • age equal to or greater than 70 years, • hypertension (taking antihypertensives of at least two different classes), • diabetes, • history of cerebral stroke (transient ischemic event or completed cerebral stroke) or of systemic embolism, • left atrial diameter greater than or equal to 50 mm measured by echocardiography, • left ventricular ejection fraction less than 40%, measured by two-dimensional echography; • or • age equal to or above 70, or even above 75, possibly combined with at least one of the risk factors below: • hypertension (taking antihypertensives of at least two different classes), • diabetes, • history of cerebral stroke (transient ischemic event or completed cerebral stroke) or of systemic embolism, • left atrial diameter greater than or equal to 50 mm measured by echocardiography, • left ventricular ejection fraction less than 40%, measured by two-dimensional echography; • 2) availability of one electrocardiogram within the last six months, showing that the patients was or is in atrial fibrillation/flutter, • 3) availability of one electrocardiogram within the last six months, showing that the patients was or is in sinus rhythm.
Study drug treatment units (placebo or dronedarone hydrochloride corresponding to 400 mg of base) were such that each patient took one tablet in the morning during or shortly after breakfast and one tablet in the evening during or shortly after dinner.
The treatment duration depended on the time of recruitment of each patient in the trial and could be comprised from 12 months to 30 months.
Results were calculated using non-parametric Kaplan-Meier estimate.
Cox's proportional hazard model was used to estimate the hazard ratio also called relative risk.
Relative risk (RR) is the ratio between the risk of having a cardioversion for patients treated with dronedarone and the risk of having a cardioversion for patients treated with placebo.
Percentage of decrease of an event is calculated as follow: […]

## CCCCc1oc2ccc(NS(C)(=O)=O)cc2c1C(=O)c1ccc(OCCCN(CCCC)CCCC)cc1 [dronedarone hydrochloride, 2-n-butyl-3-[4-(3-di-n-butylaminopropoxy)benzoyl]-5-methylsulfonamido-benzofuran]
2301 of 4628 patients treated, 400 mg of base twice a day with meals, 12 to 30 months, placebo group 481 events
  events (cardioversion) registered: 339
Cox's proportional hazard model, 400 mg of base twice a day, 12 to 30 months, p<0.001
  Calculated relative risk (hazard ratio) of having a cardioversion versus placebo: 0.68
on-study period 12-30 months
  time course of effect, Kaplan Meier cumulative incidence from randomization to first cardioversion (FIG. 1): occurred early and increased over time
x=1-RR versus placebo, p<0.001
  decrease of electrical cardioversion: 32%
